Assay results published in ChEMBL document CHEMBL5137013 (Eur J Med Chem, 2022).
The source made the active and inactive calls. The rule behind the calls is not given here.

Columns and labels:
MCF7 = experiment: Cytotoxicity against human MCF7 cells assessed as reduction in cell viability measured after 24 hrs by MTT assay; details: MCF7, 24 h
MDA-MB-231 = experiment: Cytotoxicity against human MDA-MB-231 cells assessed as reduction in cell viability measured after 24 hrs by MTT assay; format: functional, cell-based; details: MDA-MB-231, 24 h
A549 [1] = experiment: Cytotoxicity against human A549 cells assessed as reduction in cell viability measured after 24 hrs by MTT assay; details: A549, 24 h
HeLa = experiment: Cytotoxicity against human HeLa cells assessed as reduction in cell viability measured after 24 hrs by MTT assay; format: functional, cell-based
[2] = Cytotoxicity against human MCF7/TxR cells assessed as reduction in cell viability measured after 24 hrs by MTT assay; format: functional, cell-based
[3] = Resistance index, ratio of IC50 for human MCF7/TxR cells to IC50 for human MCF7 cells; format: functional
[4] = Resistance index, ratio of IC50 for human A549/TxR cells to IC50 for human A549 cells; format: functional
HT-29 [5] = experiment: Inhibition of colony formation in human HT-29 cells at 100 nM measured after 24 hrs by crystal violet staining based assay; format: functional
[6] = (§1) Inhibition of porcine brain tubulin polymerization measured at 1 min interval for 60 mins by fluorescence assay; set-up: species or system Sus scrofa
Sus scrofa = organism: Sus scrofa; experiment: as §1; details: dose 1.25-5 µM, DDE = dose-dependent effect
Tubulin (Homo sapiens) [7] = target: T1, Tubulin (Homo sapiens) (UniProt P68371+Q9H4B7+P0DPH7+P68366+Q13509+Q71U36+P04350+Q3ZCM7+P07437+P68363+Q9BQE3+Q6PEY2+Q13885+Q9BVA1+Q9BUF5); experiment: Inhibition of tubulin polymerization in human HT-29 cells assessed as up regulation of acetylated-alpha-tubulin expression at 25 to 100 nM measured after 24 hrs by Western blot analysis; format: cell-based; details: dose 25-100 nM
Tubulin (Homo sapiens) [8] = target: T1, Tubulin (Homo sapiens); experiment: Displacement of [3H] colchicine from tubulin (unknown origin) at 2.5 uM measured after 2 hrs by scintillation counting analysis relative to control; format: protein-complex assay
Tubulin (Homo sapiens) [9] = target: T1, Tubulin (Homo sapiens); experiment: Displacement of [3H] colchicine from tubulin (unknown origin) at 5 uM measured after 2 hrs by scintillation counting analysis relative to control; format: protein-complex assay
Tubulin (Homo sapiens) [10] = target: T1, Tubulin (Homo sapiens); experiment: Induction of microtubule disruption in human HT-29 cells measured after 6 hrs by immunofluorescence assay; format: cell-based; details: dose 25-100 nM, DDE = dose-dependent effect
A549 [11] = experiment: Antimigratory activity against human A549 cells assessed as reduction in scratch wound recovery at 60 nM measured after 24 hrs by scratch wound healing assay relative to control; format: functional; set-up: scale not given: the % may be the effect or the level left
HUVEC = experiment: Antiangiogenic activity in HUVEC assessed as inhibition of tube formation at 12.5 to 50 nM incubated for 24 hrs by matrigel assay; format: functional, cell-based; details: Homo sapiens, dose 12.5-50 nM
HT-29 [12] = experiment: Cell cycle arrest in human HT-29 cells assessed as increase in cell accumulation at G2/M phase measured after 24 hrs by propidium iodide staining based flow cytometry; format: functional; details: dose 12.5-100 nM, DDE = dose-dependent effect
HT-29 [13] = experiment: Cell cycle arrest in human HT-29 cells assessed as cell accumulation at G2/M phase at 100 nM measured after 24 hrs by propidium iodide staining based flow cytometry (reference value: 20.9%); format: functional
HT-29 [14] = experiment: Cell cycle arrest in human HT-29 cells assessed as effect on cdc25 expression at 25 to 100 nM measured after 24 hrs by Western blot analysis; format: functional, cell-based; details: dose 25-100 nM
HT-29 [15] = experiment: Cell cycle arrest in human HT-29 cells assessed as effect on cdk7 expression at 25 to 100 nM measured after 24 hrs by Western blot analysis; format: functional, cell-based; details: dose 25-100 nM
HT-29 [16] = experiment: Cell cycle arrest in human HT-29 cells assessed as effect on cdc2 expression at 25 to 100 nM measured after 24 hrs by Western blot analysis; format: functional, cell-based; details: dose 25-100 nM
HT-29 [17] = experiment: Induction of apoptosis in human HT-29 cells at 25 to 100 nM measured after 24 hrs by Annexin V-FITC/propidium iodide staining based flow cytometry; format: functional, cell-based; details: dose 25-100 nM
HT-29 [18] = experiment: Induction of apoptosis in human HT-29 cells assessed as down regulation of Bim expression at 25 to 100 nM measured after 24 hrs by Western blot analysis; format: functional, cell-based; details: dose 25-100 nM
HT-29 [19] = experiment: Induction of apoptosis in human HT-29 cells assessed as up regulation of Bcl-2 expression at 25 to 100 nM measured after 24 hrs by Western blot analysis; format: functional, cell-based; details: dose 25-100 nM
HT-29 [20] = experiment: Induction of apoptosis in human HT-29 cells assessed as up regulation of phosphorylated Bcl-2 expression at 25 to 100 nM measured after 24 hrs by Western blot analysis; format: functional, cell-based; details: dose 25-100 nM
HT-29 [21] = experiment: Induction of apoptosis in human HT-29 cells assessed as up regulation of Bax expression at 25 to 100 nM measured after 24 hrs by Western blot analysis; format: functional, cell-based; details: dose 25-100 nM
HT-29 [22] = experiment: Induction of apoptosis in human HT-29 cells assessed as down regulation of phosphorylated histone H3 expression at 25 to 100 nM measured after 24 hrs by Western blot analysis; format: functional, cell-based; details: dose 25-100 nM
HT-29 [23] = experiment: Induction of apoptosis in human HT-29 cells assessed as increase in cleaved caspase-9 expression at 25 to 100 nM measured after 24 hrs by Western blot analysis; format: functional, cell-based; details: dose 25-100 nM
HT-29 [24] = experiment: Induction of apoptosis in human HT-29 cells assessed as increase in cleaved caspase-3 expression at 25 to 100 nM measured after 24 hrs by Western blot analysis; format: functional, cell-based; details: dose 25-100 nM
HT-29 [25] = experiment: Induction of apoptosis in human HT-29 cells assessed as increase in PARP expression at 25 to 100 nM measured after 24 hrs by Western blot analysis; format: functional, cell-based; details: dose 25-100 nM
HT-29 [26] = experiment: Induction of mitochondrial dysfunction in human HT-29 cells assessed as reduction in red fluorescence intensity measured after 24 hrs by JC-1 staining based JC-1 dye based confocal laser scanning microscopy; format: functional, cell-based; details: dose 25-100 nM, DDE = dose-dependent effect
HT-29 [27] = experiment: Induction of mitochondrial dysfunction in human HT-29 cells assessed as increase in green fluorescence intensity measured after 24 hrs by JC-1 staining based JC-1 dye based confocal laser scanning microscopy; format: functional, cell-based; details: dose 25-100 nM, DDE = dose-dependent effect
HT-29 [28] = experiment: Induction of ROS generation in human HT-29 cells measured after 24 hrs by DCFH-DA dye based confocal laser scanning microscopy; format: functional, cell-based; details: dose 25-100 nM, DDE = dose-dependent effect
HT-29 [29] = experiment: Antitumor activity against human HT-29 cells xenografted in ip dosed BALB/c nude mouse assessed as tumor growth inhibition administered at 2 days interval for 3 weeks; format: functional, organism-based; details: DDE = dose-dependent effect
HT-29 [30] = experiment: Antitumor activity against human HT-29 cells xenografted in BALB/c nude mouse assessed as reduction in tumor weight at 10 mg/kg, ip administered as 2 days interval for 3 weeks and measured 3 weeks post-initial dosing relative to control; format: functional; set-up: scale not given: the % may be the effect or the level left
[31] = Toxicity in human HT-29 cells xenografted BALB/c nude mouse assessed as body weight loss at 5 to 10 mg/kg, ip administered as 2 days interval for 3 weeks and measured 3 times a week during compound dosing; format: organism-based; details: in vivo, 504 h, dose 5-10 mg/kg
[32] = Half-life in Sprague-Dawley rat at 10 mg/kg, iv by HPLC-MS/MS analysis; format: ADME, organism-based; details: in vivo
[33] = AUC in Sprague-Dawley rat at 10 mg/kg, iv by HPLC-MS/MS analysis; format: ADME, organism-based; set-up: dose 10 mg/kg, route iv; details: in vivo
[34] = Clearance in Sprague-Dawley rat at 10 mg/kg, iv by HPLC-MS/MS analysis; format: ADME, organism-based; details: in vivo

`COC(=O)c1cc2c(cc1Nc1cc(OC)c(OC)c(OC)c1)OCCO2` showed an IC50 (MCF7) of 140 nM, an IC50 (MDA-MB-231) of 100 nM and an IC50 (A549 [1]) of 240 nM. For the same compound, the IC50 (HeLa) was 35 nM, the IC50 [2] was 180 nM and the “Ratio IC50” value [3] was 1.3. For the same compound, the “Ratio IC50” value [4] was 1.2, the inhibition at 0.1 µM (HT-29 [5]) was 100% and the IC50 [6] was 1090 nM. The inhibition (Sus scrofa) was “Dde”, the inhibition (Tubulin (Homo sapiens) [7]) was “Active” and the inhibition (Tubulin (Homo sapiens) [8]) was 77.6%. The inhibition (Tubulin (Homo sapiens) [9]) was 93.5%, the Activity (Tubulin (Homo sapiens) [10]) was “Dde” and the Activity (A549 [11]) was 85.2%. The inhibition (HUVEC) was “Active”, the Activity (HT-29 [12]) was “Dde” and the Activity (HT-29 [13]) was 87.5%. The Activity (HT-29 [14]) was “Active”, the Activity (HT-29 [15]) was “Active” and the Activity (HT-29 [16]) was “Active”. The Activity (HT-29 [17]) was “Active”, the Activity (HT-29 [18]) was “Active” and the Activity (HT-29 [19]) was “Active”. The Activity (HT-29 [20]) was “Active”, the Activity (HT-29 [21]) was “Active” and the Activity (HT-29 [22]) was “Active”. For the same compound, the Activity (HT-29 [23]) was “Active”, the Activity (HT-29 [24]) was “Active” and the Activity (HT-29 [25]) was “Active”. The Activity (HT-29 [26]) was “Dde”, the Activity (HT-29 [27]) was “Dde” and the Activity (HT-29 [28]) was “Dde”. The TGI (HT-29 [29]) was “Dde”, the Activity (HT-29 [30]) was 75.5% and the Activity [31] was “Non-Toxic”. For the same compound, the t1/2 [32] was 1.73 h, the AUC [33] was 5670 µg/L.hr and the CL [34] was 29.3 mL/min/kg.
